# Test results reported in patent publication US9469854B2, “Pharmaceutical composition for treating liver diseases” (Academia Sinica, priority 2014, dated 2016).
# Experiments:
# [1] = tested on: HLCS; test: qRT-PCR mRNA expression in primary human hepatocytes; assay type: cell-based
# Protocol: (§1) The primary human hepatocytes from Caucasian donors were purchased from Invitrogen and cultured following the manufacturer's instructions. The hepatocytes were thawed and transferred into cryopreserved hepatocytes recovery medium (CM7000, Invitrogen), centrifuging at room temperature, 100×g for 10 min. Then, the hepatocytes were diluted to seeding density with plating medium (CM3000, Invitrogen) and added into collagen I-coated plates (Invitrogen). These plates were incubated at 37° C. for 4-6 hours under 5% CO2 for forming a monolayer. Then, plating medium was replaced by overlay incubation medium (CM4000 and 0.35 mg/mL Geltrex™ Matrix, Invitrogen), and the incubation medium was replaced daily. In the following examples, hepatocytes form 3 to 4 donors were used for experiments. A 50 mM stock solution of berberine chloride (Sigma-Aldrich) was prepared in dimethyl sulfoxide (DMSO). Cells were treated with 40 μM of berberine chloride or 0.08% DMSO as the control. For induction of lipid droplets formation in cultured cells, 200 μM of oleic acid (Sigma-Aldrich) was added into the culture medium for 24 h. Total RNA was extracted using a TRIZOL reagent (Invitrogen) according to the manufacturer's protocol. The total RNA quantity was measured using a NanoDrop ND-1000 spectrophotometer (Nanodrop Technologies). The total RNA quality and integrity were assayed using an Agilent 2100 bioanalyzer with an RNA 6000 nano kit (Agilent Technologies). Total RNAs (1 μg) were reverse-transcribed into cDNA by using M-MuLV Reverse Transcriptase (Thermo) and Oligo(dT)12-18 primers (Invitrogen) according to the manufacturer's protocol. The cDNA were then used for a real-time PCR with a LightCycler 480 SYBR Green I Master (Roche) by using primers shown in the following Table 1. The gene expression levels were normalized to GAPDH levels.
# [2] = tested on: ACACB; test: as above; assay type: cell-based; details: PHH
# Protocol: as §1
# [3] = tested on: ACACA; test: as above; assay type: cell-based; details: PHH
# Protocol: as §1
# [4] = tested on: DGAT2; test: as above; assay type: cell-based; details: PHH
# Protocol: as §1
# [5] = tested on: RPTOR; test: as above; assay type: cell-based; details: for decrease in RPTOR expression: 50 nM mimic transfection
# Protocol: as §1
# [6] = tested on: MTOR; test: as above; assay type: cell-based; details: for decrease in MTOR expression: 50 nM mimic transfection
# Protocol: as §1
# [7] = tested on: hsa-miR-21-3p; test: miRNA microarray profiling of berberine-treated HepG2 cells; assay type: cell-based, human; details: HepG2, 40 μM berberine, 2 h and 4 h vs control cells
# Protocol: The miRNA profiling was performed using an Agilent human miRNA Microarray R14 V2 containing 866 human miRNAs. […] Microarrays were scanned following the Agilent microarray scanner protocol, and image analysis and quantification were performed using the Agilent Feature Extraction software (Agilent Technologies). […]
# [8] = tested on: MAT2B; test: qRT-PCR mRNA expression in HepG2 cells; assay type: cell-based, human
# Protocol: (§2) The human HepG2 cells and HEK 293T cells used in the following examples were originally obtained from the American Tissue Culture Collection (ATCC, USA). The human HCC HepG2 cell line was cultured in Minimum Essential Medium Eagle (Sigma) supplemented with 10% fetal bovine serum (FBS) (Invitrogen), 2.2 g/L of sodium bicarbonate (Sigma), 0.1 mM of non-essential amino acids (Caisson), 1 mM of sodium pyruvate (Invitrogen), and 10 of ml/L penicillin-streptomycin-amphotericin solution (Biological Industries). Human HEK-293T cells were maintained in high-glucose Dulbecco's modified eagle medium (Invitrogen) supplemented with 10% FBS and 3.7 g/L of sodium bicarbonate (Sigma). Both cell lines were cultured at 37° C. and 5% CO2. A 50 mM stock solution of berberine chloride (Sigma-Aldrich) was prepared in dimethyl sulfoxide (DMSO). Cells were treated with 40 μM of berberine chloride or 0.08% DMSO as the control. For induction of lipid droplets formation in cultured cells, 200 μM of oleic acid (Sigma-Aldrich) was added into the culture medium for 24 h. Total RNA was extracted using a TRIZOL reagent (Invitrogen) according to the manufacturer's protocol. The total RNA quantity was measured using a NanoDrop ND-1000 spectrophotometer (Nanodrop Technologies). The total RNA quality and integrity were assayed using an Agilent 2100 bioanalyzer with an RNA 6000 nano kit (Agilent Technologies). Total RNAs (1 μg) were reverse-transcribed into cDNA by using M-MuLV Reverse Transcriptase (Thermo) and Oligo(dT)12-18 primers (Invitrogen) according to the manufacturer's protocol. The cDNA were then used for a real-time PCR with a LightCycler 480 SYBR Green I Master (Roche) by using primers shown in the following Table 1. The gene expression levels were normalized to GAPDH levels. […] Cells were incubated for 24 h or 48 h with a microRNA mimic or inhibitor prior to RNA purification for gene expression analysis, and were incubated for 72 h for protein expression analysis.
# [9] = tested on: ACACB; test: qRT-PCR mRNA expression in HepG2 cells; assay type: cell-based, human
# Protocol: as §2
# [10] = tested on: MAT2A; test: qRT-PCR mRNA expression in HepG2 cells; assay type: cell-based, human; details: for decrease in mRNA expression of MAT2A: HepG2, 50 nM mimic transfection
# Protocol: as §2
# [11] = tested on: MAT1A; test: qRT-PCR mRNA expression in HepG2 cells; assay type: cell-based, human
# Protocol: as §2
# [12] = tested on: 3′ UTR of ACACA; test: Reporter examination of miR-21-3p and ACACA 3′ UTR (technology similar to Example 6); assay type: cell-based, human; details: data not shown
# Protocol: The HEK-293T and HepG2 cells were seeded at a density of 5×10^4 cells per well in a 24-well culture plate the day before transfection. The HEK-293T and HepG2 cells were tri-transfected with (1) any one of the above-mentioned pMIR-REPORT-3′ UTR construction (300 ng), (2) the control Renilla luciferase reporter plasmid pRL-TK from Promega (10 ng), and (3) 50 nM of hsa-miR-21-3p mimic or negative-control mimic by using the Lipofectamine 2000 transfection reagent (Invitrogen) according to the manufacturer's instructions. Luciferase assays were performed after transfection for 48 h by using the Dual Luciferase reporter assay kit (Promega) and the Paradigm detection platform (Beckman) according to the manufacturer's protocol. The firefly luciferase activity was normalized relative to the Renilla luciferase activity.
# [13] = HepG2, 40 μM berberine, up to 8 h
# [14] = 24 h, cells not named in b149 (primary human hepatocytes)
# [15] = HepG2, 50 nM mimic transfection, 48 h
compound,measurement,setting,value
COc1ccc2cc3[n+](cc2c1OC)CCc1cc2c(cc1-3)OCO2 [berberine],mRNA expression of HLCS,"[1]; PHH, 40 μM berberine, 4-8 h",decreases
same,mRNA expression of ACACB,"[2]; 40 μM berberine, 4-8 h",decreases
same,ACACA expression decrease,"[3]; 40 μM berberine, 8 h",2.1 fold
same,changes in DGAT2 expression levels,"[4]; 40 μM berberine, 2-8 h",not significant
same,mRNA expression of RPTOR,"[5]; PHH, 40 μM berberine, 4-8 h",decreases
same,mRNA expression of MTOR,"[6]; PHH, 40 μM berberine, 4-8 h",decreases
same,hsa-miR-21-3p expression increase (miRNA microarray),[7],4 fold
same,MAT2B mRNA expression change,[8]; [13],did not change substantially
same,ACACB expression,"[9]; HepG2, berberine (data not shown)",consistently decreased
same,MAT2A mRNA level decrease,"[10]; HepG2, 40 μM berberine, 2 h vs 0.08% DMSO",1.8 fold
same,MAT2A mRNA level decrease,"[10]; HepG2, 40 μM berberine, 4 h (lowest value) vs 0.08% DMSO",3.8 fold
same,MAT2A mRNA level change (given as increase),"[10]; HepG2, 40 μM berberine, 8 h vs 0.08% DMSO",2.2 fold
same,MAT1A mRNA expression change,[11]; [13],did not change substantially
"hsa-miR-21-3p (CAACACCAGUCGAUGGGCUGU; listed as RNA, chemistry not given here) [miR-21-3p mimic]",decrease in HLCS expression,"[1]; 50 nM mimic transfection, 48 h, cells not given",1.5 fold
same,ACACB expression decrease,"[2]; 50 nM mimic transfection, 48 h",1.8 fold
same,ACACA expression decrease,"[3]; 50 nM mimic transfection, 48 h",1.6 fold
same,decrease in mRNA expression levels of DGAT2,"[4]; mimic transfection, 48 h",1.5 fold
same,decrease in RPTOR expression,[5]; [14],1.6 fold
same,decrease in RPTOR expression,"[5]; 48 h, cells not given",2.2 fold
same,decrease in MTOR expression,[6]; [14],1.4 fold
same,decrease in MTOR expression,"[6]; 48 h, cells not given",2.5 fold
same,suppression of ACACA expression via 3′ UTR,[12],"suppressed the expression of ACACA, but not though its 3′ UTR sequence"
same,decrease in mRNA expression of MAT2B,[8]; [15],> 50%
same,decrease in mRNA expression of ACACB,"[9]; HepG2, mimic transfection, 24 h",50%
same,decrease in mRNA expression of MAT2A,[10]; 24 hours,> 50%
same,decrease in mRNA expression of MAT2A,[10]; 48 h,> 50%
same,decrease in mRNA expression of MAT1A,[11]; [15],but not in that of MAT1A
